Assays:
[1] = system: Mouse macrophages (RAW 264.7); assay: Cell toxicity assay (WST-1); format: cell-based; settings: RAW 264.7, 24 hours, read-out: GI50 macrophage
Experimental: (§1) Cell toxicity assays. Mouse macrophages (RAW 264.7) were grown in RPM11640 media supplemented with L-glutamine and 10% foetal calf serum. Cells were trypsanised when 80% confluent and subcultured every 3-4 days. For cytotoxicity assays cells were diluted to a final cell concentration of 2×10^4 cells/ml and 198 μl added to each well of a 96 well plate. Cells were incubated in a humidified incubator for 2 hours at 37° C. 5% CO2 before the addition of NCL compounds (2 μl/well, previously diluted in DMSO). Campothecin, triton X and DMSO only were used as controls. Cells were exposed to the compounds for 24 hours. The metabolic activity of the cells was determined using the WST-1 assay system (Roche Life Science). The supernatant was removed, 100 μl of PBS with 10% WST-1 was added to each well and incubated for 1 hr before reading absorbance at 450 nm. The selectivity index of the compounds was determined by dividing the IC50 of macrophages by the IC50 against parasites. IC50 was determined via graphpad prism software.

[2] = system: Leishmania donovani promastigotes; assay: L. donovani screening (Alamarblue); format: cell-based; settings: for IC50: 72 hours; for L. donovani SI: GI50 of macrophages divided by IC50 of parasites
Experimental: L. donovani Screening. Procyclic promastigotes from exponentially growing cultures maintained in DME-L+ Bob additions were used for all assays. Compounds were initially screened for activity at 10 μM. Compounds were diluted in culture media to a […] in 96 well plates. Promastigotes were diluted to a density of ˜8×10^5 cells/ml then added to the assay plate resulting in a final cell density of 4×10^5 cells/ml. in 96 well plates. Cells were incubated for 96 hrs at 27° C. before the addition of Alamarblue (thermofisher). Fluorescence was read at excitation 530 nm and Emission 590 nm. […] Compounds were serially diluted in thirds, in a 96 well plate, in cell growth media so that concentrations ranged from 0.005 to 10 μM and promastigotes added to a final concentration of 1×10^6 cells/ml. Cells were incubated at 27° C. for 72 hours before the addition of alamar blue. Fluorescence was measured as above.

[3] = system: T. brucei procyclic stage; assay: T. brucei screening (alamar blue); format: cell-based, Trypanosoma brucei; settings: for T. brucei SI: GI50 of macrophages divided by IC50 of parasites
Experimental: T. brucei screening. Procyclic promastigotes from exponentially growing cells maintained SDM-79 medium were used in all assays. Compounds were initially screened at 10 μM for activity. Compounds were diluted in culture media to a concentration of 20 μM and added to a 96 well plate, after addition of promastigotes (final concentration 4×10^5 cells/ml) compound concentration was 10 μM. Cells were incubated for 48 hrs at 27° C. before the addition of alamar blue and fluorescence measurement as described above. […] Compounds were serially diluted in thirds in culture media resulting in final concentrations ranging from 0.004-10 μM. Promastigotes were added at a final concentration of 4×10^5 cells/ml. Cells were incubated at 27° C. for 48 hours before addition of alamar blue. In addition promastigotes, at a concentration of 8×10^5 were exposed to NCL026 for 1.5 hours before removal of the drug via centrifugation at 5000 rpm for 7 minutes and resuspension of cells in culture media. Cells were incubated for 96 hours at 27° C. and observed daily for metabolic activity (alamar blue assay) and morphological changes. A control culture was exposed to DMSO instead of NCL026.

[4] = system: Trypanosoma cruzi (Tulahuen trypomastigotes expressing β-galactosidase, in L6 cells); assay: In vitro T. cruzi assay for determination of IC50; format: cell-based; settings: 96 h incubation
Experimental: The T. cruzi assay uses Tulahuen trypomastigotes expressing the β-galactosidase gene. The parasites were maintained in vitro by serial passage in L6 cells. […] Extracellular trypomastigotes were then removed and NCL compounds were added in seven-point serial dilutions performed in triplicate. Benznidazole (Epichem Pty Ltd.) was included as a control. […] After 4-6 h, a colour change following catabolisation of the reagent by viable T. cruzi was observed and absorbance was read at 530 nm using a Dynex microplate reader. […] For each compound, % inhibition values were used to generate a standard curve from which the IC50 was calculated. Each assay was performed at least twice, and the average was used.

[5] = Exposure in male Swiss outbred mice following IV administration; format: in vivo; settings: IV 5 mg/kg; for Apparent t1/2: plasma, value marked b is an approximation; for AUC0-inf / Plasma CL / Plasma Vss: values marked a, b are approximations
Experimental: The systemic exposures of NCL026, NCL195, NCL259 and NCL812 were studied in nonfasted male Swiss outbred mice weighing 26.2-32.1 g. Mice had access to food and water ad libitum throughout the pre- and post-dose sampling period. Each compound was administered IV via a bolus injection into the tail vein (vehicle 20% (v/v) DMSO in PEG400, 1 mL/kg dose volume, n=8 mice per compound). […] A maximum of two samples were obtained from each mouse, with samples being taken either via submandibular bleed (approximately 120 μL; conscious sampling) or terminal cardiac puncture (0.6 mL; while mice were anaesthetised using inhaled Isoflurane). No urine samples were collected as mice were housed in bedded cages during the study. Blood was collected directly into polypropylene Eppendorf tubes containing heparin as anticoagulant, and stabilisation cocktail (containing Complete® (a protease inhibitor cocktail with EDTA) and potassium fluoride) to minimise the potential for ex vivo degradation of the test compounds in blood/plasma samples. Once collected, blood samples were centrifuged immediately, supernatant plasma was removed, and stored at −80° C. until analysis by LC-MS using methods standard in the art. Each compound was administered in a vehicle composed of 20% (v/v) DMSO in PEG400. Formulations were prepared by dissolving the compounds in DMSO prior to addition of PEG400. Formulations were not filtered prior to dosing and were administered to mice within 2.5 h of preparation. […] The dose administered to each mouse was calculated on the basis of the measured concentration in the IV formulation, the dose volume and individual mouse body weight. Plasma concentration versus time data were analysed using non-compartmental methods (WinNonlin Version 6.3.0.395). Standard calculations for each pharmacokinetic parameter were calculated using standard methods in the art.

[6] = Cell toxicity assay (WST-1); format: cell-based, mouse; settings: mouse, RAW 264.7 macrophages, RAW 264.7, 24 hours, read-out: GI50 macrophage
Experimental: as §1

[7] = Exposure of NCL195 in male Swiss outbred mice following IP administration; format: in vivo
Experimental: The formulation was prepared by dissolving solid NCL195 in DMSO (to 20% (v/v) of the final volume) before adding PEG400, yielding a clear yellow solution that was dosed to mice within 30 minutes of preparation. The measured concentration of NCL195 in the final formulation was 21.9 mg/mL, resulting in a mean administered dose of 43 mg/kg. Following administration, blood samples were collected up to 24 h post-dose (n=2 mice per time point). A maximum of two samples were obtained from each mouse, with samples being taken either via submandibular bleed (approximately 120 μL; conscious sampling) or terminal cardiac puncture (0.6 mL; while mice were anaesthetised using inhaled Isoflurane). No urine samples were collected as mice were housed in bedded cages during the study. Blood was collected directly into polypropylene Eppendorf tubes containing heparin as anticoagulant and stabilisation cocktail (containing Complete® (a protease inhibitor cocktail), potassium fluoride and EDTA) to minimise the potential for ex vivo degradation of NCL195 in blood/plasma samples. Once collected, blood samples were centrifuged immediately, supernatant plasma was removed, and stored in −20° C. until analysis by LCMS using standard methods in the art.

giardia = settings: cited from earlier work
[8] = system: Giardia duodenalis trophozoites; assay: Resazurin reduction assay (Example 3); format: cell-based; settings: 42 hours, then 6 hours with Alamarblue
Experimental: Giardia trophozoites were grown until confluent. The media was replaced with fresh media and they were cold shocked for 40 minutes (as above). Cells were diluted to a concentration of ˜500 000 cells/ml and 100 μl were added to each well of the assay plate (except media only control). The assay was incubated in an anaerobic environment (candle jar) for 42 hours at 37° C. […] After incubation the absorbance of each sample was read at 570 and 630 nm. The percent reduction of resazurin (Alamarblue™) was calculated and data was analysed with GraphPad Prism v6 software. Assay set-up: the assay was performed in 96 well plates in a total volume of 200 μl. 100 μl of NCL812 or NCL062 (concentration of 25.6 mg/ml in DMSO) or metronidazole (concentration 5 mg/ml in DMSO) stock was added to 9.9 ml of TYI-S-33 medium, then serially diluted 1:2 in the same medium. Cells were added as above.

[9] = system: Giardia duodenalis (strain WB trophozoites); assay: Giardia adherence assay; format: cell-based; settings: exposed for 5 hours
Experimental: Giardia strain WB was grown until confluent (grown and maintained in TYI-S-33 medium with 10% foetal bovine serum). For the assay, media of a confluent culture was replaced with fresh TYI-S-33 medium. Cultures were then cold shocked (on ice) for 40 minutes to detach trophozoites. The cell density of the cultures was adjusted to 1×10^6 cells/ml and 1 ml was added to each well of a 24 well plate already containing 1 ml of diluted compounds (see below). […] After incubation the coverslips were removed, air-dried and stained with Diff-Quik (a Romanowski stain variant). Coverslips were mounted onto glass slides using polymount. Images at 10× magnification were taken at 5 random locations per coverslip. […] Stock solutions of compounds were prepared in DMSO at 25.6 mg/ml. Compounds were diluted 1:100 in TYI-S-33 medium. A 1:2 serial dilution was then performed in TYI-S-33 medium in 24 well plates.

SMILES	GI50 [1] [nM]	IC50 [2] [nM]	L. donovani SI [2]	IC50 ([3]; 48 hours) [nM]	T. brucei SI [3]	Apparent t1/2 [5] [h]	AUC0-inf [5] [µM·h]	Plasma CL [5] [mL/min/kg]	Plasma Vss [5] [L/kg]	further results
N#Cc1cccc(C=NNC(=N)NN=Cc2cccc(C#N)c2)c1 [NCL026]	9600 ± 990	2500 ± 130	3.84	1700	5.71	1.5	2.5	100.6	6.9	reduction of metabolic activity / inhibitory effect on T. brucei ([3]; 10 μM, 48 hrs): greatest inhibitory effect; IC50 ([3]; 48 hours, listed as NCL 026): 1680 ± 630 nM; IC50 [4]: 1400 nM
Cl.N=C(NN=Cc1ccc(SC(F)(F)F)cc1)NN=Cc1ccc(SC(F)(F)F)cc1 [NCL166]	9460 ± 50	3230 ± 1000	2.78	–	–	–	–	–	–	–
CN(C)c1ccc(C=NNC(=N)NN=Cc2ccc(N(C)C)cc2O)c(O)c1 [NCL171]	12500 ± 3610	–	–	1400	relatively selective	–	–	–	–	IC50 ([3]; 48 hours, listed as NCL 171): 1370 ± 30 nM; T. brucei SI ([3]; listed as NCL 171): 9.14
Cc1ccc(/C=N/Nc2cc(N/N=C/c3ccc(C)cc3)nc(N)n2)cc1 [NCL195, 4,6-bis(2-((E)-4-methylbenzylidene)hydrazinyl)pyrimidin-2-amine]	–	–	–	1460 ± 760	3.79	2.4	12.5	16.3	2.6	GI50 at 24 h [6]: 5780 ± 330 nM; inhibition at 10 µM ([2]; Leishmania donovani, 10 μM, 96 hrs, read-out: reduction of metabolic activity / inhibition of L. donovani): 100%; IC50 ([3]; Trypanosoma brucei, 48 h): 1500 nM; absorption after dosing ([7]; IP, 43 mg/kg): rapidly absorbed; adverse reactions or compound-related side effects ([7]; IP, 43 mg/kg): No adverse reactions or compound-related side effects; duration of exposure at a plasma concentration >8 μg/mL ([7]; extrapolated to IP 100 mg/kg, assuming dose proportionality): at least 7.5 hours
Cc1ncc([N+](=O)[O-])n1CCO [metronidazole, reference compound]	–	–	–	–	–	–	–	–	–	median efficacy (giardia; giardia treatment): approximately 89%; giardia curative rate (clearance of the protozoan) (giardia; human adult and paediatric patients, 5-10 days, reported as low as): ≥ 60%; metabolic activity of the trophozoites (percentage of reduction of resazurin) [8]: reduction in the metabolic activity; number of adherent trophozoites [9]: significant decreases
CC(=O)Oc1ccccc1C(=O)Nc1ncc([N+](=O)[O-])s1 [nitazoxanide]	–	–	–	–	–	–	–	–	–	overall response rate (clearance of the protozoan) (giardia; giardia): 75%
